28 compounds from US8791118B2, “Pyridopyrazines as highly selective ras-Raf-Mek-Erk signal transduction pathway inhibitors” (Aeterna Zentaris GmbH, priority 2011, dated 2014) can be followed below.

The term melting point denotes the temperature, or range, at which the solid turns liquid. Compound `CCNC(=O)Oc1ccc(-c2cnc3ccc(NC(=O)NCCCCc4ccccc4)nc3n2)cc1` showed a melting point of 198 °C.

For `Cl.O=C(NCCCCc1ccccc1)Nc1ccc2ncc(N3CCNCC3)nc2n1`, the melting point was 209 to 211 °C.

Consider `Cc1n[nH]c(C)c1-c1cnc2ccc(NC(=O)NCCCCc3ccccc3)nc2n1` [Compound 91, 1-[3-(3,5-Dimethyl-1H-pyrazol-4-yl)-pyrido[2,3-b]pyrazin-6-yl]-3-(4-phenyl-butyl)-urea], for which the melting point was 299 to 300 °C.

On to `COc1ccc(-c2cnc3ccc(NC(=O)NCCCCc4ccccc4)nc3n2)c(OC)c1OC` [Compound 92, 1-(4-Phenyl-butyl)-3-[3-(2,3,4-trimethoxy-phenyl)-pyrido[2,3-b]pyrazin-6-yl]-urea], for which the melting point was 135 to 138 °C.

Compound `CN1CCN(c2cnc3ccc(NC(=O)NCCCCc4ccccc4)nc3n2)CC1` [Compound 93, 1-[3-(4-Methyl-piperazin-1-yl)-pyrido[2,3-b]pyrazin-6-yl]-3-(4-phenyl-butyl)-urea] displayed a melting point of 181 to 183 °C.

Compound `O=C(NCCCCc1ccccc1)Nc1ccc2ncc(-c3ccc4nc[nH]c4c3)nc2n1` [Compound 94, 1-[3-(3H-Benzoimidazol-5-yl)-pyrido[2,3-b]pyrazin-6-yl]-3-(4-phenyl-butyl)-urea] returned a melting point of 226 °C.

As to `Nc1cccc(-c2cnc3ccc(NC(=O)NCCCCc4ccccc4)nc3n2)c1` [Compound 95, 1-[3-(3-Amino-phenyl)-pyrido[2,3-b]pyrazin-6-yl]-3-(4-phenyl-butyl)-urea], the melting point was in the range of 200 to 203 °C.

In turn, `Cc1ccc(CCCCNC(=O)Nc2ccc3ncc(-c4cnn(C)c4)nc3n2)cc1` [Compound 97, 1-[3-(1-Methyl-1H-pyrazol-4-yl)-pyrido[2,3-b]pyrazin-6-yl]-3-(4-p-tolyl-butyl)-urea] had a melting point of 202 to 204 °C.

Consider `COc1ccc(-c2cnc3ccc(NC(=O)N[C@H](C)CCCc4ccccc4)nc3n2)cc1OC` [Compound 98, 1-[3-(3,4-Dimethoxy-phenyl)-pyrido[2,3-b]pyrazin-6-yl]-3-((R)-1-methyl-4-phenyl-butyl)-urea], for which the melting point lay within 195 to 197 °C.

On to `Cn1cc(-c2cnc3ccc(NC(=O)NCCCCc4ccc(F)cc4)nc3n2)cn1` [Compound 99, 1-[4-(4-Fluoro-phenyl)-butyl]-3-[3-(1-methyl-1H-pyrazol-4-yl)-pyrido[2,3-b]pyrazin-6-yl]-urea], for which the melting point lay in the range of 197 to 200 °C.

With `CCCn1cc(-c2cnc3ccc(NC(=O)NCCCC(C)(C)c4ccccc4)nc3n2)cn1` [Compound 100, 1-(4-Methyl-4-phenyl-pentyl)-3-[3-(1-propyl-1H-pyrazol-4-yl)-pyrido[2,3-b]pyrazin-6-yl]-urea], the melting point was in the range of 205 to 207 °C.

`CCOc1ccccc1-c1cnc2ccc(NC(=O)NCCCCc3ccccc3)nc2n1` [Compound 102, 1-[3-(2-Ethoxy-phenyl)-pyrido[2,3-b]pyrazin-6-yl]-3-(4-phenyl-butyl)-urea] returned a melting point of 173 to 175 °C.

For `O=C(NCCCCc1ccccc1)Nc1ccc2ncc(-c3cc(Cl)c(O)c(Cl)c3)nc2n1` [Compound 103, 1-[3-(3,5-Dichloro-4-hydroxy-phenyl)-pyrido[2,3-b]pyrazin-6-yl]-3-(4-phenyl-butyl)-urea], the melting point was 271 to 273 °C.

With `O=C(NCCCCc1ccccc1)Nc1ccc2ncc(-c3cccc(O)c3)nc2n1` [Compound 104, 1-[3-(3-Hydroxy-phenyl)-pyrido[2,3-b]pyrazin-6-yl]-3-(4-phenyl-butyl)-urea], the melting point was in the range of 226 to 228 °C.

As to `O=C(NCCCCc1ccccc1)Nc1ccc2ncc(-c3ccn[nH]3)nc2n1` [Compound 105, 1-(4-Phenyl-butyl)-3-[3-(2H-pyrazol-3-yl)-pyrido[2,3-b]pyrazin-6-yl]-urea], the melting point is 280 °C (dec.).

As for `Cc1cc(O)ccc1-c1cnc2ccc(NC(=O)NCCCCc3ccccc3)nc2n1` [Compound 106, 1-[3-(4-Hydroxy-2-methyl-phenyl)-pyrido[2,3-b]pyrazin-6-yl]-3-(4-phenyl-butyl)-urea], the melting point is 207 to 210 °C.

The compound `CC(=O)Oc1ccc(-c2cnc3ccc(NC(=O)NCCCCc4ccccc4)nc3n2)cc1` [Compound 107, Acetic acid 4-{6-[3-(4-phenyl-butyl)-ureido]-pyrido[2,3-b]pyrazin-3-yl}-phenyl ester] showed a melting point of 220 °C.

`O=C(NCCCCc1ccccc1)Nc1ccc2ncc(-c3ccc(O)c(Br)c3)nc2n1` [Compound 109, 1-[3-(3-Bromo-4-hydroxy-phenyl)-pyrido[2,3-b]pyrazin-6-yl]-3-(4-phenyl-butyl)-urea] yielded a melting point of 238 to 241 °C.

For `Cn1cc(-c2cnc3ccc(NC(=O)NCC4CCc5ccccc5C4)nc3n2)cn1` (stereo not shown) [Compound 111, 1-[3-(1-Methyl-1H-pyrazol-4-yl)-pyrido[2,3-b]pyrazin-6-yl]-3-(1,2,3,4-tetrahydro-naphthalen-2-ylmethyl)-urea], the melting point is 230 to 233 °C.

`Cc1c(-c2cnc3ccc(NC(=O)NCCCCc4ccccc4)nc3n2)cnn1-c1ccccc1` [Compound 113, 1-[3-(5-Methyl-1-phenyl-1H-pyrazol-4-yl)-pyrido[2,3-b]pyrazin-6-yl]-3-(4-phenyl-butyl)-urea] yielded a melting point of 224 to 226 °C.

For the compound `COc1ccc(CCCCNC(=O)Nc2ccc3ncc(-c4cnn(C)c4)nc3n2)cc1` [Compound 115, 1-[4-(4-Methoxy-phenyl)-butyl]-3-[3-(1-methyl-1H-pyrazol-4-yl)-pyrido[2,3-b]pyrazin-6-yl]-urea], the melting point was in the range of 195 to 196 °C.

The compound `COc1ccc(-c2cnc3ccc(NC(=O)NCCCCc4ccccc4)nc3n2)cc1` [Compound 118, 1-[3-(4-Methoxy-phenyl)-pyrido[2,3-b]pyrazin-6-yl]-3-(4-phenyl-butyl)-urea] showed a melting point of 200 to 203 °C.

In turn, `CCCNc1cnc2ccc(NC(=O)NCCCCc3ccccc3)nc2n1` [Compound 119, 1-(4-Phenyl-butyl)-3-(3-propylamino-pyrido[2,3-b]pyrazin-6-yl)-urea] registered a melting point of 118 to 120 °C.

`Cc1ccccc1-c1cnc2ccc(NC(=O)NCCCCc3ccccc3)nc2n1` [Compound 120, 1-(4-Phenyl-butyl)-3-(3-o-tolyl-pyrido[2,3-b]pyrazin-6-yl)-urea] gave a melting point of 158 to 160 °C.

`COc1ccccc1-c1cnc2ccc(NC(=O)NCCCCc3ccccc3)nc2n1` [Compound 124, 1-[3-(2-Methoxy-phenyl)-pyrido[2,3-b]pyrazin-6-yl]-3-(4-phenyl-butyl)-urea]: the melting point lay within 173 to 177 °C.

On to `C[C@H](CCCc1ccccc1)NC(=O)Nc1ccc2ncc(-c3ccc(O)c(Cl)c3)nc2n1` [Compound 129, 1-[3-(3-Chloro-4-hydroxy-phenyl)-pyrido[2,3-b]pyrazin-6-yl]-3-((R)-1-methyl-4-phenyl-butyl)-urea], for which the melting point was in the range of 225 to 228 °C.

`Nc1ccccc1-c1cnc2ccc(NC(=O)NCCCCc3ccccc3)nc2n1` [Compound 130, 1-[3-(2-Amino-phenyl)-pyrido[2,3-b]pyrazin-6-yl]-3-(4-phenyl-butyl)-urea] registered a melting point of 190 to 191 °C.

As for `CCCn1cc(-c2cnc3ccc(NC(=O)NCCCC(=O)c4ccccc4)nc3n2)cn1` [Compound 131, 1-(4-Oxo-4-phenyl-butyl)-3-[3-(1-propyl-1H-pyrazol-4-yl)-pyrido[2,3-b]pyrazin-6-yl]-urea], the melting point is 210 to 211 °C.
